Measurements published in patent US6803203B1, “DNA-PK assay” (Brookhaven Science Associates, priority 1993, dated 2004).
No end group written: not given here.

Experiments:
Assay type in all cases: biochemical
DNA-PK [1] = biological target: T1, DNA-PK (Homo sapiens, UniProt P78527); experiment: Phosphorylation of synthetic peptides in crude cell extracts (HeLa, T98G); details: for PO4 incorporated + DNA: + calf thymus DNA 10 μg/ml; for PO4 incorporated + DNA / PO4 incorporated − DNA: peptide 200 μM, 10 min 30° C.; for PO4 incorporated − DNA: without DNA
T1 construct: DNA-PK was purified from HeLa cells; endogenous in cells; host or cells: HeLa S3 cells; the endogenous enzyme was purified in house by chromatography
Procedure: To examine cells for DNA-PK content, extracts from HeLa, T98G human glioblastoma, and mouse L 929 cells were prepared by freeze-thaw lysis of cells harvested from five nearly confluent 9-cm-diameter plates as described in Example 1 and by Lees-Miller, et al. J. Biol. Chem., 264:2431-2437 (1989). T98G (ATCC CRL 1690) is a human glioblastoma cell line; L-929 (ATCC CCL 1) was derived from connective tissue of the NCTC 2071 mouse. Based on earlier work with natural protein substrates, it was expected that extracts of HeLa and T98G cells would contain a significant amount of DNA-PK activity while the extracts of mouse L 929 would contain little, if any, DNA-PK activity. Lysates in low-salt buffer were centrifuged at 10,000×g, to give a supernatant fraction (designated S10) and pellets (designated P10). The pellets were washed by resuspension in a high salt buffer (0.5 M KCl, 25 mM N-2-hydroxyethylpiperazine-N′-2-ethanesulfonic acid (HEPES; pH 7.5), 10 mM MgCl2, 1 mM dithiothreitol) and were sonicated. The sonicated suspension was centrifuged at 10,000×g for 10 min to give a second supernatant fraction (designated P10S), which was diluted with buffer lacking KCl to give a volume equal to that of the original supernatant (S10). Protein concentrations, determined using the Bio-Rad dye-binding assay, were as follows: HeLa S10, 3 mg/ml; HeLa P10S, 1 mg/ml; T98G S10, 3.5 mg/ml;,T98G P10S, 1 mg/ml; L-929 S10, 1 mg/ml; and L-929 P10S, 0.3 mg/ml. These extracts were assayed for the ability to phosphorylate (SEQ ID NOS: 11 and 20) with and without added calf thymus DNA.

DNA-PK [2] = experiment: DNA-PK activity in extracts of mouse cell lines; details: peptide 0.2 mM; for Specific Activity + DNA: + calf thymus DNA 10 μg/ml; for Specific Activity − DNA: no added DNA
Procedure: (§1) Extracts of additional primate and rodent cells were tested for the presence of DNA-PK activity in accordance with the method of the present invention. The DNA-PK activity was determined using the methods described in Examples 1, 4 and 5 for seven human cell lines, two African green monkey kidney lines, and six rodent cell lines.
(§2) Extracts were prepared essentially as described in Example 10. Cells were lysed by freezing and thawing in hypotonic buffer; soluble (S10) “cytoplasmic” and insoluble in (P10) “nuclear” fractions were made by centrifuging lysates at 10,000×g for 10 min. The insoluble fraction was extracted with buffer containing 0.5 M KCl, which releases any DNA-PK that is bound to DNA. After centrifugation of the salt-washed pellet fraction, which removed the remaining insoluble material, the salt extract (P10S) was diluted and assayed as previously described.
(§3) Protein concentrations, determined using the Bio-Rad dye binding assay, were between 0.3 and 6 mg/ml. Extracts were incubated at 30° C. for 10 min with each peptide at 0.2 mM in the absence of added DNA (−DNA) or with 10 μg/ml calf thymus DNA (+DNA). After incubation the reaction mixtures were acidified with an equal volume of 30% acetic acid and spotted on to Whatman P-81 phosphocellulose paper (Whatman, Inc., Clifton, N.J.). The filters then were washed extensively in 15% acetic acid before the adsorbed radioactivity was quantitated as described in Example 5.
(§4) The amount of phosphate incorporated was calculated from the specific activity of the ATP. The rate of phosphate incorporation into the Ser-Gln-Glu peptide (Table 1) (SEQ ID NO: 11) in the presence of calf thymus DNA was approximately linear throughout the 10 minute reaction incubation period. Parallel assays were performed without added peptide, and these background values were subtracted to produce the activities that are shown in Table 3. Background values varied but, in all cases, were less than 0.2 nmol/min/mg (a few percent of the activity present in human cells). The specific activities were calculated from the total activity in the two fractions divided by the total protein in the two fractions. The percent of total DNA-PK activity in the S10 and P10S fractions was determined with peptide (SEQ ID NO: 11) in the presence of added calf thymus DNA. Extracts without substantial DNA-PK activity were examined for their ability to inhibit purified DNA-PK. Inhibitory activity was not detected.

DNA-PK [3] = experiment: DNA-PK activity in extracts of rat cells; details: Rat REF, peptide 0.2 mM; for Specific Activity + DNA: + calf thymus DNA 10 μg/ml; for Specific Activity − DNA: no added DNA
Procedure: as §1, §2, §3, §4

- PO4 incorporated + DNA (DNA-PK [1]; HeLa, P10S): 0.0 nmol/min/ml of extract
- PO4 incorporated − DNA (DNA-PK [1]; HeLa, P10S): 0.0 nmol/min/ml of extract
- PO4 incorporated + DNA (DNA-PK [1]; HeLa, S10): 0.3 nmol/min/ml of extract
- PO4 incorporated − DNA (DNA-PK [1]; HeLa, S10): 0.0 nmol/min/ml of extract
- PO4 incorporated + DNA (DNA-PK [1]; T98G, P10S): 0.0 nmol/min/ml of extract
- PO4 incorporated − DNA (DNA-PK [1]; T98G, P10S): 0.0 nmol/min/ml of extract
- PO4 incorporated + DNA (DNA-PK [1]; T98G, S10): 0.04 nmol/min/ml of extract
- PO4 incorporated − DNA (DNA-PK [1]; T98G, S10): 0.02 nmol/min/ml of extract
- phosphorylation by crude cell extracts (in words) (DNA-PK [1]; all extracts of Table 2 (HeLa, T98G, L 929)): poorly phosphorylated, if at all
Sequence: EPPLSEQAFADLWKK [SEQ ID NO: 20]
- Specific Activity + DNA (DNA-PK [2]; Mouse L-929, P10S): 0.0 nmol PO4/min/mg protein
- Specific Activity − DNA (DNA-PK [2]; Mouse L-929, P10S): 0.0 nmol PO4/min/mg protein
- Specific Activity + DNA (DNA-PK [2]; Mouse L-929, S10): 0.0 nmol PO4/min/mg protein
- Specific Activity − DNA (DNA-PK [2]; Mouse L-929, S10): 0.0 nmol PO4/min/mg protein
- Specific Activity + DNA (DNA-PK [2]; Mouse SV-Balb/c, P10S): 0.04 nmol PO4/min/mg protein
- Specific Activity − DNA (DNA-PK [2]; Mouse SV-Balb/c, P10S): 0.0 nmol PO4/min/mg protein
- Specific Activity + DNA (DNA-PK [2]; Mouse SV-Balb/c, S10): 0.06 nmol PO4/min/mg protein
- Specific Activity − DNA (DNA-PK [2]; Mouse SV-Balb/c, S10): 0.0 nmol PO4/min/mg protein
- Specific Activity + DNA (DNA-PK [3]; P10S): 0.0 nmol PO4/min/mg protein
- Specific Activity − DNA (DNA-PK [3]; P10S): 0.03 nmol PO4/min/mg protein
- Specific Activity + DNA (DNA-PK [3]; S10): 0.0 nmol PO4/min/mg protein
- Specific Activity − DNA (DNA-PK [3]; S10): 0.02 nmol PO4/min/mg protein
